From US20050175976A1, “Meiosis activating sterol augments implantation rate” (priority 1999, published 2005)
Marks after values point to notes of the source that are not given here.

Assays:
[1] = system: mouse cumulus enclosed oocytes; assay: Induction of resumption of meiosis in mouse cumulus enclosed oocytes exposed to AY9944-A-7; type: cell-based
Method: Immature female C57BI/2J B6D2 mice (11-15 g) were stimulated with exogenous gonadotropins (7.5 IU per mouse; Gonadoplex, Leo, Ballerup, Denmark). Forty-eight hours after injection with gonadotropins, the mice were sacrificed and the ovaries removed. Cumulus enclosed oocytes (CEO) were recovered by puncturing individual follicles and collected in a culture medium (a-MEM, Gibco, BRL) supplemented with 3 mg/ml bovine serum albumin, 5 mg/ml human serum albumin, 2 mM L-glutamine, 100 IU/ml penicillin, 100 μg/ml streptomycin and 4 mM hypoxanthine (control medium).
Induction of resumption of meiosis in mouse cumulus enclosed oocytes exposed to an inhibitor of sterol Δ14-reductase (AY9944-A-7) during culture.
Oocytes from 10-15 mice were pooled and randomly divided into the different test groups. The tests were performed using 4-well dishes (Nunclon, Roskilde, Denmark) each well containing 20-50 oocytes in 400 μl culture medium. Each dish had one well serving as control and the three other wells as tests.
All test media were prepared using HX-medium. AY9944-A-7 (AY) was kindly provided by Wyeth-Ayerst, Princeton, N.J., USA. AY has no structural similarities to MAS. Stock solutions of AY9944 in water were stored at −20° C., and was added directly to the HX-medium immediately prior to oocyte culture. AY was used in concentrations from 0.2 to 25 μM.

[2] = system: sterol 14-reductase (Δ14R); conditions: AY 0.1 μM, cultured rat hepatocytes; cited from earlier work
[3] = system: mouse cumulus enclosed oocytes; assay: Resumption of meiosis (GVBD) in mouse cumulus enclosed oocytes exposed to Amphotericin B; type: cell-based
Method: Amphotericin B is a medical product used against fungal infections by inhibiting cholesterol biosynthesis. It has no structural similarities to MAS. Its effect on resumption of meiosis was tested on mouse cumulus enclosed oocytes, in vitro. Ovarian stimulation was performed on immature female mice and the cumulus enclosed oocytes (CEO) isolated as described in Example 3.
Cumulus enclosed oocytes were cultured separately in 4-well dishes (Nuncleon, Roskilde, Denmark), 0.4 ml medium in each well containing control medium or medium supplemented with Amphotericin B (Bristol-Myers Squibb) in a 100% humidified atmosphere of 5% CO2 with 95% air at 37° C.
The effect of Amphotericin in concentrations of 0.6 and 1.2 μg/ml was evaluated after 22 hours in culture.
In another series of experiments, i.e. priming of CEO, the culture period with Amphotericin, priming period, varied from 5 min. to 240 min. in test medium with 1.2 μg/ml Amphotericin. After the priming period, the CEO were transferred to control medium and the culture continued for a total of 22 hours.
By the end of the culture period, germinal […] breakdown (GVBD) was scored by examining the oocyte in an inverted microscope. The percentage of oocytes with GVBD per total number of oocytes (% GVBD) was calculated.

[4] = system: mouse cumulus enclosed oocytes; assay: Resumption of meiosis (GVBD) of mouse oocytes cultured in vitro with FSH and/or EGF; type: cell-based; conditions: EGF 0.5 ng/ml, 22-24 h, HX-medium
Method: Immature female mice (B6D2-F1 strain C57B1/2J) were kept under controlled light and temperature conditions with free access to food and water. […] The percentage of oocytes with GVBD per total number of oocytes (% GVBD) was calculated.

Cl.Cl.Clc1ccccc1CNCC1CCC(CNCc2ccccc2Cl)CC1 (stereo not shown) [AY, AY9944-A-7]
Oocyte maturation of CEO (FIG. 2) ([1]; AY 0.2 to 25 μM in HX-medium): stimulates oocyte maturation of CEO in a dose-dependent way
GVBD compared to the controls (FIG. 2) ([1]; AY 5, 10 and 25 μM, p<0.05, p<0.001 and p<0.001): increase GVBD significantly
Mode of action on Δ14R [2]: competitive inhibitor

C[C@@H]1[C@H](O)[C@@H](C)/C=C/C=C/C=C/C=C/C=C/C=C/C=C/[C@H](O[C@@H]2O[C@H](C)[C@@H](O)[C@H](N)[C@@H]2O)C[C@@H]2O[C@](O)(C[C@@H](O)C[C@@H](O)[C@H](O)CC[C@@H](O)C[C@@H](O)CC(=O)O[C@H]1C)C[C@H](O)[C@H]2C(=O)O [Amfotericin, Amphotericin B]
% GVBD ([3]; 0.6 μg/ml, 22 hours in culture, 94 oocytes): 28%
No. of GVBD ([3]; 0.6 μg/ml, 22 hours in culture, of 94 oocytes): 26
% GVBD ([3]; 1.2 μg/ml priming 5 minutes, then control medium to 22 hours, 98 oocytes): 21%
No. of GVBD ([3]; 1.2 μg/ml priming 5 minutes, then control medium to 22 hours, of 98 oocytes): 21
% GVBD ([3]; 1.2 μg/ml priming 10 minutes, then control medium to 22 hours, 88 oocytes): 29%
No. of GVBD ([3]; 1.2 μg/ml priming 10 minutes, then control medium to 22 hours, of 88 oocytes): 26
% GVBD ([3]; 1.2 μg/ml priming 30 minutes, then control medium to 22 hours, 116 oocytes): 36%
No. of GVBD ([3]; 1.2 μg/ml priming 30 minutes, then control medium to 22 hours, of 116 oocytes): 42
% GVBD ([3]; 1.2 μg/ml priming 120 minutes, then control medium to 22 hours, 50 oocytes): 50%
No. of GVBD ([3]; 1.2 μg/ml priming 120 minutes, then control medium to 22 hours, of 50 oocytes): 25
% GVBD ([3]; 1.2 μg/ml priming 240 minutes, then control medium to 22 hours, 49 oocytes): 69%
No. of GVBD ([3]; 1.2 μg/ml priming 240 minutes, then control medium to 22 hours, of 49 oocytes): 34
% GVBD ([3]; 1.2 μg/ml, 22 hours in culture, 121 oocytes): 76%
No. of GVBD ([3]; 1.2 μg/ml, 22 hours in culture, of 121 oocytes): 92

EGF: epidermal growth factor
% GVBD ([4]; 68 oocytes): 31^c,d %
No. of GVBD ([4]; of 68 oocytes): 21
